According to patent US7109193B2, “Tricyclic diazepines tocolytic oxytocin receptor antagonists” (Wyeth, priority 2001, dated 2006):

What follows are compounds tested against T1, human vasopressin V1a receptor subtype (Homo sapiens, UniProt P37288) (assay: Vasopressin binding in Chinese Hamster Ovary cell membranes expressing human vasopressin V1a subtype receptors). Settings: 100 nM, CHO cell membranes, [3H]Manning ligand, values without parentheses.
T1 construct: host or cells: CHO cells (pZeoSV vector for the Thibonnier line)
T1 sequence (P37288 whole entry): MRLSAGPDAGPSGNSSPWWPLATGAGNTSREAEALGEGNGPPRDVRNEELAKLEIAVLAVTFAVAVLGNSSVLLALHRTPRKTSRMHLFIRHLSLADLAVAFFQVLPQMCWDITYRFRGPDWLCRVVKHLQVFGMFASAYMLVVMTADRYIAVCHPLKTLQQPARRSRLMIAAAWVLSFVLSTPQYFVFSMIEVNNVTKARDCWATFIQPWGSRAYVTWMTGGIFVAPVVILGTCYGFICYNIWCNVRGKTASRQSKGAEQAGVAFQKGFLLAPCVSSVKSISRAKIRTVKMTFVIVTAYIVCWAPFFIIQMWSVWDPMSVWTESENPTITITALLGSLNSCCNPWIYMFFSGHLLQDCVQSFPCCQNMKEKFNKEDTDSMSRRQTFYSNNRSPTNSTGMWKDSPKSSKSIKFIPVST
In short: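 Displacement of [3H]Manning ligand (8 nM working solution) from human V1a receptors in CHO cell membranes, 25–50 μg protein per well. Incubation ran 60 min at room temperature in 50 mM Tris-HCl pH 7.4 with protease inhibitors, followed by filtration and scintillation counting. Results are given as IC50 or percent inhibition.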
With `COc1cccc(-c2cc(OC)c(C(=O)N3Cc4ccc(C(=O)N5CCCN(C)CC5)n4Cc4ccccc43)cc2Cl)c1` [Example 67, {10-[(6-Chloro-3,3′-dimethoxy[1,1′-biphenyl]-4-yl)carbonyl]-10,11-dihydro-5H-pyrrolo[2,1-c][1,4]benzodiazepin-3-yl}(4-methyl-1,4-diazepan-1-yl)methanone] the inhibition at 0.1 µM was -4%. In the case of `COc1cccc(-c2ccc(C(=O)N3Cc4ccc(C(=O)NCCCN(C)C)n4Cc4ccccc43)cc2C)c1` [Example 74, N-[3-(Dimethylamino)propyl]-10-[(3′-methoxy-2-methyl[1,1′-biphenyl]-4-yl)carbonyl]-10,11-dihydro-5H-pyrrolo[2,1-c][1,4]benzodiazepine-3-carboxamide], the inhibition at 0.1 µM was 12%. For `Cc1cc(C(=O)N2Cc3ccc(C(=O)N[C@@H](Cc4c[nH]cn4)C(N)=O)n3Cc3ccccc32)ccc1-c1ccccc1C(F)(F)F` [Example 284, N-[(1S)-2-Amino-1-(1H-imidazol-4-ylmethyl)-2-oxoethyl]-10-{[2-methyl-2′-(trifluoromethyl)[1,1′-biphenyl]-4-yl]carbonyl}-10,11-dihydro-5H-pyrrolo[2,1-c][1,4]benzodiazepine-3-carboxamide], the inhibition at 0.1 µM was 0%. For `Cc1ccccc1-c1ccc(C(=O)N2Cc3ccc(C(=O)N4CCCN(C)CC4)n3Cc3ccccc32)cc1` [Example 65, {10-[(2′-Methyl[1,1′-biphenyl]-4-yl)carbonyl]-10,11-dihydro-5H-pyrrolo[2,1-c][1,4]benzodiazepin-3-yl}(4-methyl-1,4-diazepan-1-yl)methanone], the inhibition at 0.1 µM was 40%. `COc1ccccc1-c1ccc(C(=O)N2Cc3ccc(C(=O)N[C@@H](Cc4c[nH]cn4)C(N)=O)n3Cc3ccccc32)cc1OC` [Example 286, N-[(1S)-2-Amino-1-(1H-imidazol-4-ylmethyl)-2-oxoethyl]-10-[(2,2′-dimethoxy[1,1′-biphenyl]-4-yl)carbonyl]-10,11-dihydro-5H-pyrrolo[2,1-c][1,4]benzodiazepine-3-carboxamide] showed an inhibition at 0.1 µM of 8%. `COc1cc(C(=O)N2Cc3ccc(C(=O)N4CCN(C(C)C)CC4)n3Cc3ccccc32)ccc1-n1c(C)ccc1C` [Example 319, {10-[4-(2,5-Dimethyl-1H-pyrrol-1-yl)-3-methoxybenzoyl]-10,11-dihydro-5H-pyrrolo[2,1-c][1,4]benzodiazepin-3-yl}(4-isopropyl-1-piperazinyl)methanone] was tested, and the inhibition at 0.1 µM was 9%. Compound `COc1cc(C(=O)N2Cc3ccc(C(=O)N4CCN(CCCN(C)C)CC4)n3Cc3ccccc32)ccc1-c1cccc2ccccc12` [Example 253, {4-[3-(Dimethylamino)propyl]-1-piperazinyl}{10-[3-methoxy-4-(1-naphthyl)benzoyl]-10,11-dihydro-5H-pyrrolo[2,1-c][1,4]benzodiazepin-3-yl}methanone] has an inhibition at 0.1 µM of 16%. In the case of `CN1CCCN(C(=O)c2ccc3n2Cc2ccccc2N(C(=O)c2ccc(-c4cccc5ccccc45)cc2Cl)C3)CC1` [Example 71, {10-[2-Chloro-4-(1-naphthyl)benzoyl]-10,11-dihydro-5H-pyrrolo[2,1-c][1,4]benzodiazepin-3-yl}(4-methyl-1,4-diazepan-1-yl)methanone], the inhibition at 0.1 µM was 4%. For `COc1ccccc1-c1ccc(C(=O)N2Cc3ccc(C(=O)NCCCN(C)C)n3Cc3ccccc32)cc1` [Example 75, N-[3-(Dimethylamino)propyl]-10-[(2′-methoxy[1,1′-biphenyl]-4-yl)carbonyl]-10,11-dihydro-5H-pyrrolo[2,1-c][1,4]benzodiazepine-3-carboxamide], the inhibition at 0.1 µM was 27%. `COc1ccccc1-c1ccc(C(=O)N2Cc3ccc(C(=O)N[C@@H](Cc4c[nH]cn4)C(N)=O)n3Cc3ccccc32)cc1C` [Example 288, N-[(1S)-2-Amino-1-(1H-imidazol-4-ylmethyl)-2-oxoethyl]-10-[(2′-methoxy-2-methyl[1,1′-biphenyl]4-yl)carbonyl]-10,11-dihydro-5H-pyrrolo[2,1-c][1,4]benzodiazepine-3-carboxamide] was tested, and the inhibition at 0.1 µM was 24%. `COc1ccccc1-c1ccc(C(=O)N2Cc3ccc(C(=O)N4CCN(C)CC4)n3Cc3ccccc32)cc1OC` [Example 56, {10-[(2,2′-Dimethoxy[1,1′-biphenyl]-4-yl)carbonyl]-10,11-dihydro-5H-pyrrolo[2,1-c][1,4]benzodiazepin-3-yl}(4-methyl-1-piperazinyl)methanone] was tested, and the inhibition at 0.1 µM was 2%. `COc1cc(C(=O)N2Cc3ccc(C(=O)NCCN4CCCCC4)n3Cc3ccccc32)ccc1-n1c(C)ccc1C` [Example 314, 10-[4-(2,5-Dimethyl-1H-pyrrol-1-yl)-3-methoxybenzoyl]-N-[2-(1-piperidinyl)ethyl]-10,11-dihydro-5H-pyrrolo[2,1-c][1,4]benzodiazepine-3-carboxamide] showed an inhibition at 0.1 µM of 6%. With `Cc1ccccc1-c1ccc(C(=O)N2Cc3ccc(C(=O)N4CCN(C)CC4)n3Cc3ccccc32)cc1` [Example 52, {10-[(2′-Methyl[1,1′-biphenyl]-4-yl)carbonyl]-10,11-dihydro-5H-pyrrolo[2,1-c][1,4]benzodiazepin-3-yl}(4-methyl-1-piperazinyl)methanone] the inhibition at 0.1 µM was 54%. Compound `COc1cc(-c2ccccc2C)c(Cl)cc1C(=O)N1Cc2ccc(C(=O)N[C@@H]3CN4CCC3CC4)n2Cc2ccccc21` [Example 297, N-[(3S)-1-Azabicyclo[2.2.2]oct-3-yl]-10-[(6-chloro-3-methoxy-2′-methyl-[1,1′-biphenyl]-4-yl)carbonyl]-10,11-dihydro-5H-pyrrolo[2,1-c][1,4]benzodiazepine-3-carboxamide] has an inhibition at 0.1 µM of -2%. In the case of `COc1cc(C(=O)N2Cc3ccc(C(=O)N4CCC(N5CCCC5)CC4)n3Cc3ccccc32)ccc1-n1c(C)ccc1C` [Example 313, {10-[4-(2,5-Dimethyl-1H-pyrrol-1-yl)-3-methoxybenzoyl]-10,11-dihydro-5H-pyrrolo[2,1-c][1,4]benzodiazepin-3-yl}[4-(1-pyrrolidinyl)-1-piperidinyl]methanone], the inhibition at 0.1 µM was 2%. Work on `COc1cc(C(=O)N2Cc3ccc(C(=O)NCCCN(C)C)n3Cc3ccccc32)ccc1-n1c(C)ccc1C` [Example 308, N-[3-(Dimethylamino)propyl]-10-[4-(2,5-dimethyl-1H-pyrrol-1-yl)-3-methoxybenzoyl]-10,11-dihydro-5H-pyrrolo[2,1-c][1,4]benzodiazepine-3-carboxamide] yielded an inhibition at 0.1 µM of -12%. For `Cc1ccccc1-c1ccc(C(=O)N2Cc3ccc(C(=O)N4CCN(C)CC4)n3Cc3ccccc32)cc1C` [Example 50, {10-[(2,2′-Dimethyl[1,1′-biphenyl]-4-yl)carbonyl]-10,11-dihydro-5H-pyrrolo[2,1-c][1,4]benzodiazepin-3-yl}(4-methyl-1-piperazinyl)methanone], the inhibition at 0.1 µM was 40%. `Cc1ccccc1-c1ccc(C(=O)N2Cc3ccc(C(=O)N4CCN(CCCN(C)C)CC4)n3Cc3ccccc32)cc1C` [Example 247, {4-[3-(Dimethylamino)propyl]-1-piperazinyl}{10-[(2,2′-dimethyl[1,1′-biphenyl]-4-yl)carbonyl]-10,11-dihydro-5H-pyrrolo[2,1-c][1,4]benzodiazepin-3-yl}methanone] gave an inhibition at 0.1 µM of 62%.

Same assay, conditions: 100 nM, CHO cell membranes, [3H]Manning ligand, values without parentheses, 0.1 µM
With `Cc1cc(C(=O)N2Cc3ccc(C(=O)N4CCN(CCCN(C)C)CC4)n3Cc3ccccc32)ccc1-c1ccccc1C(F)(F)F` [Example 257, {10-[(2-Methyl-2′-trifluoromethyl-[1,1′-biphenyl]-4-yl)carbonyl]-10,11-dihydro-5H-pyrrolo[2,1-c][1,4]benzodiazepin-3-yl}{4-[3-(dimethylamino)propyl]-1-piperazinyl}-methanone] the “V1a % inhibition @ 100 nM” value was 10%.
